Measurements taken from PubChem BioAssay (NCI).
Several values for one entry are separate records, joined by “and”; a condition that tells them apart may be missing. Identical values can stand only once.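 1) Cells in 96-well plates. 2) Compound, 48 h, 5 concentrations. 3) Linear interpolation between surrounding doses. 4) Unreached endpoint = highest concentration. The concentration for 50% growth inhibition is given as GI50. TGI is the concentration that stops growth completely.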

Tests used:
Test in all cases: inhibition of tumour cell growth, NCI panel, 48 h
786-0 renal = system: 786-0 renal
ACHN renal = system: ACHN renal
HOP-92 NSCLC = system: HOP-92 NSCLC
HS 578T breast = system: HS 578T breast
IGROV1 ovarian = system: IGROV1 ovarian
M14 melanoma = system: M14 melanoma
MALME-3M melanoma = system: MALME-3M melanoma
SNB-19 CNS = system: SNB-19 CNS
U251 CNS = system: U251 CNS
UACC-62 melanoma = system: UACC-62 melanoma

SMILES	GI50 (786-0 renal) [µM]	TGI (786-0 renal)	GI50 (ACHN renal) [µM]	TGI (ACHN renal) [µM]	GI50 (HOP-92 NSCLC) [µM]	TGI (HOP-92 NSCLC)	GI50 (HS 578T breast) [µM]	TGI (HS 578T breast) [µM]	GI50 (IGROV1 ovarian) [µM]	TGI (IGROV1 ovarian) [µM]	GI50 (M14 melanoma) [µM]	TGI (M14 melanoma)	GI50 (MALME-3M melanoma) [µM]	TGI (MALME-3M melanoma)	GI50 (SNB-19 CNS) [µM]	TGI (SNB-19 CNS) [µM]	GI50 (U251 CNS) [µM]	TGI (U251 CNS)	GI50 (UACC-62 melanoma) [µM]	TGI (UACC-62 melanoma) [µM]
CN(CCCCCl)P(=O)(OCCS(=O)(=O)CC(NC(=O)CCC(N)C(=O)O)C(=O)NC(C(=O)O)c1ccccc1)OCC1OC(n2ccc(N)nc2=O)C(O)C1O (stereo not given)	32.2	> 75 µM	16.7	> 75	4.8	74.1 µM	> 36.8	> 75	3.31	> 47.3	4.37	> 75 µM	12.6	> 75 µM	45.8	> 75	29.9	> 75 µM	35.8	> 75
CC(=O)/C(=C/c1ccccc1)C(=O)CC(C)C	17.5	32.5 µM	11.2	26.3	32.7	> 100 µM	3.89	21.2	16.4	33.6	10.8	24.3 µM	16.7	37.3 µM	12.7	26.2	4.86	17.7 µM	6.54	20.9
COc1cc2c3cc1Oc1c(OC)c(OC)cc4c1C(=NCC4)Cc1ccc(cc1)Oc1cc(ccc1O)C[C@H]3N(C)CC2	–	22.8 µM	–	83.5	–	29.1 µM	–	63.7	–	94.4	–	29.8 µM	–	18 µM	–	61.6	–	45.2 µM	–	30.3
O=C(CCl)NCCNc1nccc(Nc2ccc(S(=O)(=O)Nc3ccccn3)cc2)n1	3.25	11.7 µM	2.6	10.8	3.46	9.09 µM	5.23	> 100	2.12	6.72	1.72	4.69 µM	2.3	10.5 µM	2.42	7.56	1.21	3.43 µM	1.74	4.24
CCN(CC)CCCC(C)Nc1ccnc2cc(Cl)ccc12 (stereo not given)	67.2	> 100 µM and 23.9 µM	> 100	> 100	52	> 100 µM and 44.9 µM	> 100	> 100	> 100	> 100	18.5	32.5 µM and 28.4 µM	–	48.7 µM and 35.7 µM	> 100	> 100	> 100	> 100 µM and 66.1 µM	37.6	> 100
CC1=CC(C)=NN=C(N)N1S(=O)(=O)c1cc(C)c(Cl)cc1SCc1ccccc1	73.4	> 100 µM	24.4	> 100	3.82	38.8 µM	> 100	> 100	46	> 100	21.4	> 100 µM	49.1	> 100 µM	30.3	> 100	16.8	> 100 µM	12.4	> 100
Cc1c(O)c(N=Nc2nc3ccccc3s2)c2ccccc2c1O	> 50	> 50 µM	19.4	> 50	33.9	> 50 µM	28.9	> 50	17.6	> 50	33.5	> 50 µM	–	–	28.4	> 50	25.5	> 50 µM	15.3	> 50
O=C1C(=C(C(F)(F)Cl)C(F)(F)Cl)C2CCC1C2 (stereo not given)	–	3.64 µM	–	3.32	–	6.42 µM	–	> 10	–	3.62	–	2.38 µM	–	3.2 µM	–	> 10	–	> 10 µM	–	4.4
CCCc1n(Cc2ccc3ccccc3c2)cc[n+]1Cc1ccc2ccccc2c1	1.52	2.91 µM	3.87	14.2	0.863	2.66 µM	1.75	6.67	0.779	2.42	1.1	2.53 µM	0.876	2.58 µM	0.869	2.26	0.765	2.11 µM	0.647	2.02
CSc1c(C2=C(c3cn(C)c4ccccc34)C(=O)NC2=O)c2ccccc2n1C	1.19	> 25 µM	0.845	> 25	0.599	> 25 µM	0.59	> 25	1.39	> 25	0.649	> 25 µM	1.21	> 25 µM	> 25	> 25	1.23	> 25 µM	0.896	> 25
CCCCC(CCCCCC(CCCC)NCc1ccc2c(c1)OCO2)NCc1ccc2c(c1)OCO2 (stereo not given)	1.25	2.53 µM	1.17	2.4	0.569	2.08 µM	0.977	2.92	0.887	2.22	0.182	0.324 µM	1.09	2.56 µM	1.3	2.59	0.207	0.438 µM	1.57	3.12
Cc1ccc2oc(=O)cc(/C(=C3/C=CC=N3)c3ccc[nH]3)c2c1	0.279	0.892 µM	0.694	8.56	0.155	2.57 µM	0.391	4.7	0.468	6.5	0.209	0.548 µM	0.782	3.82 µM	0.355	4.94	0.319	1.57 µM	0.373	1.98
COC(=O)C1=C(O)[C@H](C(=O)OC)C2(O)C(C(=O)OC)[C@H](c3ccc(OC(=O)C(C)c4ccccc4)cc3)C[C@@H]1[C@@H]2C(=O)OC (stereo not given in full)	38.9	> 50 µM	19.2	> 50	> 50	> 50 µM	10.3	34.1	26.7	> 50	34.9	> 50 µM	–	–	23.7	> 50	27.4	> 50 µM	16.9	> 50
CC(=O)Nc1cc2cc(N)ccc2oc1=O	–	> 100 µM	–	> 100	–	> 100 µM	–	> 100	–	> 100	–	> 100 µM	–	> 100 µM	–	> 100	–	> 100 µM	–	–
COc1ccc2c(c1)c(-c1nc(-c3c[nH]c4ncccc34)cs1)cn2CCCN1CCCCC1	1.61	3.06 µM	1.62	3.01	1.5	3.1 µM	2.05	5.61	–	–	1.79	3.51 µM	–	–	–	–	1.78	3.21 µM	1.87	3.53
CSC(=NC#N)S/C=C/C(=O)c1ccccc1	33.7	> 100 µM	28.6	76.9	32.4	> 100 µM	39	96.8	–	–	24.7	65.8 µM	31.2	74.7 µM	> 100	> 100	40.3	> 100 µM	33.4	> 100
O=C1C(Cl)=C(Nc2ccc(Nc3ccccc3)c(NC3=C(Cl)C(=O)c4ccccc4C3=O)c2)C(=O)c2ccccc21	15.2	46.5 µM	–	–	0.0439	3.27 µM	1.87	6.36	15.9	69.1	4.55	> 100 µM	2.5	5.71 µM	4.34	59.4	2.32	7.22 µM	3.46	13.2
COc1cc2c(c(OC)c1OC)-c1ccc(O)cc1[C@@H](NC(C)=O)CC2	0.0779	> 100 µM	0.166	> 100	–	> 100 µM	0.0371	–	0.0515	–	0.033	–	–	–	0.0554	> 100	0.0465	> 100 µM	0.0582	> 100
NCCc1ccc(S(=O)(=O)F)cc1	58.2	> 100 µM	45.9	> 100	32.9	96.2 µM	82.8	> 100	71.7	> 100	> 100	> 100 µM	96.5	> 100 µM	> 100	> 100	95.1	> 100 µM	–	–
CCCCCCCCCCCCCCCC1=NCCN1	1.84	3.32 µM	1.85	3.7	2.15	4.8 µM	2.22	6	1.96	4.51	–	–	2.38	6.46 µM	–	–	1.87	3.52 µM	2.3	4.94
Nc1c(C(=O)Nc2ccccc2)sc2nc3c(cc12)CCCCC3	0.465	11.8 µM	0.998	> 100	0.91	18 µM	0.669	31.3	6.08	> 100	0.278	0.945 µM	–	–	0.643	> 100	0.767	19.5 µM	0.41	19.4
